Source: the NIST ThermoML archive (doi:10.1021/je8002282)
Numbers after ± are expanded uncertainties.

Experiments:
[1] = Liquid
[2] = xn = mol fraction of the nth substance listed; settings: Liquid

COC [dimethyl ether]
[1]
Settings	vapor or sublimation pressure [kPa]
293 K	520 ± 40
313 K	900 ± 70
353 K	2240 ± 170
373 K	3260 ± 240

COC(=O)OC [dimethyl carbonate]
[1]
Settings	vapor or sublimation pressure [kPa]
293 K	10
313 K	20 ± 20
353 K	70 ± 20
373 K	140 ± 20

[C-]#[O+] [carbon monoxide] + COC(=O)OC
[2], Pycnometric method
Settings	mass density [kg/m3]
293 K, x1 = 0.0547	1078 ± 45
293 K, x1 = 0.0679	1036.5 ± 43
293 K, x1 = 0.0838	992.5 ± 40
293 K, x1 = 0.1138	963.5 ± 39
293 K, x1 = 0.1413	919.7 ± 38
293 K, x1 = 0.1606	865.9 ± 36
313 K, x1 = 0.0534	966.4 ± 42
313 K, x1 = 0.0646	948 ± 38
313 K, x1 = 0.0868	910.2 ± 37
313 K, x1 = 0.1087	885.7 ± 36
313 K, x1 = 0.1199	834.8 ± 35
313 K, x1 = 0.1511	786.6 ± 32
353 K, x1 = 0.0485	868.7 ± 35
353 K, x1 = 0.0677	853 ± 34
353 K, x1 = 0.0752	847.4 ± 36
353 K, x1 = 0.0873	802.4 ± 36
353 K, x1 = 0.0936	773.3 ± 33
353 K, x1 = 0.1204	720.7 ± 30
373 K, x1 = 0.0418	841.2 ± 34
373 K, x1 = 0.0545	829.8 ± 34
373 K, x1 = 0.0723	801.3 ± 33
373 K, x1 = 0.084	786.7 ± 33
373 K, x1 = 0.0943	754.3 ± 32
373 K, x1 = 0.1095	710.1 ± 31

O=O [oxygen] + COC(=O)OC
[2], determining using the ratio of the masses to the volume of the sample.
Settings	mass density [kg/m3]
293.15 K, x1 = 0.0612	1087.6 ± 5.7
293.15 K, x1 = 0.0791	1062.4 ± 6.3
293.15 K, x1 = 0.097	1032 ± 6.7
293.15 K, x1 = 0.1266	984.7 ± 6.5
293.15 K, x1 = 0.1605	931.3 ± 8.4
293.15 K, x1 = 0.1977	838 ± 10
313 K, x1 = 0.0506	1056.6 ± 14
313 K, x1 = 0.061	1014.8 ± 16
313 K, x1 = 0.0748	960.2 ± 14
313 K, x1 = 0.099	885.7 ± 9.8
313 K, x1 = 0.1307	824.8 ± 6.4
313 K, x1 = 0.175	766.6 ± 5.5
353 K, x1 = 0.0412	988.5 ± 4.8
353 K, x1 = 0.0523	947.8 ± 21
353 K, x1 = 0.0614	882.2 ± 21
353 K, x1 = 0.0733	826.7 ± 29
353 K, x1 = 0.082	728.8 ± 19
353 K, x1 = 0.1018	685.3 ± 6.1
373 K, x1 = 0.0233	935.5 ± 12
373 K, x1 = 0.0347	900.2 ± 12
373 K, x1 = 0.0539	841.3 ± 11
373 K, x1 = 0.071	798.9 ± 16
373 K, x1 = 0.0858	712.5 ± 24
373 K, x1 = 0.0953	652.5 ± 25
